Source: ChEMBL document CHEMBL1142818, “Identification of heteroarylenamines as a new class of antituberculosis lead molecules” (Bioorg Med Chem Lett, 2005)
Values after ≈ are worked out from the molar mass of the structure shown.

Experiments:
Vero [1] = test: Inhibitory concentration required to produce cytotoxicity against VERO cells; d = Poor solubility prevented determination of activity; assay type: functional, cell-based, Chlorocebus sabaeus
[2] = system: Mycobacterium tuberculosis; test: Minimum inhibitory concentration against Mycobacterium tuberculosis H37Rv pFPCA1 in green fluorescent protein microplate assay; assay type: functional
Vero [3] = test: Selectivity ratio for IC50 of VERO cells to that of MIC of Mycobacterium tuberculosis H37Rv; d = Poor solubility prevented determination of activity; assay type: functional, cell-based; details: Chlorocebus sabaeus
Vero [4] = test: Selectivity ratio for IC50 of VERO cells to that of MIC of Mycobacterium tuberculosis H37Rv; assay type: functional, Chlorocebus sabaeus
Vero [5] = test: Inhibitory concentration required to produce cytotoxicity against VERO cells; assay type: functional, cell-based; details: Chlorocebus sabaeus
[6] = system: Mycobacterium tuberculosis; test: Minimum inhibitory concentration against Mycobacterium tuberculosis H37Rv; Range 0.125-0.25 ug/mL; assay type: functional

## Cc1c2c(nc3ccccc13)C(=O)c1ccccc1C2=O
Vero [1]
  IC50: Poor solubility
[2]
  MIC: 1.56 µg/mL (≈ 5.71 µM)
Vero [3]
  Selectivity: Poor solubility

## CC[C@@H](CO)NCCN[C@@H](CC)CO [ETHAMBUTOL]
[2]
  MIC: < 0.2 µg/mL

## C=C(C=O)c1c2c(nc3ccccc13)C(=O)c1ccccc1C2=O
Vero [1]
  IC50: Poor solubility
[2]
  MIC: 0.2 µg/mL (≈ 0.638 µM)
Vero [3]
  Selectivity: Poor solubility

## NNC(=O)c1ccncc1 [ISONIAZID]
[2]
  MIC: < 0.2 µg/mL

## Cc1c2c(nc3ccccc13)C(=O)c1cccnc1C2=O
Vero [1]
  IC50: Poor solubility
[2]
  MIC: 6.25 µg/mL (≈ 22.8 µM)
Vero [3]
  Selectivity: Poor solubility

## CN(C)/C=C/c1c2c(nc3ccccc13)C(=O)c1ccccc1C2=O
Vero [4]
  Selectivity: 15.1
Vero [5]
  IC50: 5.9 µg/mL (≈ 18 µM)
[2]
  MIC: 0.39 µg/mL (≈ 1.19 µM)

## CN(C)CCc1c2c(nc3ccccc13)C(=O)c1cccnc1C2=O
Vero [4]
  Selectivity: 0.45
Vero [5]
  IC50: 1.4 µg/mL (≈ 4.22 µM)
[2]
  MIC: 3.13 µg/mL (≈ 9.45 µM)

## CN(C)CCc1c2c(nc3ccccc13)C(=O)c1ccccc1C2=O
Vero [4]
  Selectivity: 4.5
Vero [5]
  IC50: 3.5 µg/mL (≈ 10.6 µM)
[2]
  MIC: 0.78 µg/mL (≈ 2.36 µM)

## CN(C)/C=C/c1ccnc2c1C(=O)c1ccccc1C2=O
Vero [4]
  Selectivity: 5.8
Vero [5]
  IC50: 9.1 µg/mL (≈ 32.7 µM)
[2]
  MIC: 1.56 µg/mL (≈ 5.61 µM)

## CN(C)/C=C/c1cccc2nc3ccccc3cc12
[2]
  MIC: 21 µg/mL (≈ 84.6 µM)

## O=C1c2cccnc2-c2nccc3c2c1nc1ccccc13 [ASCIDIDEMIN]
Vero [4]
  Selectivity: <0.4
Vero [5]
  IC50: < 0.04 µg/mL
[2]
  MIC: 0.1 µg/mL (≈ 0.353 µM)

## CO[C@H]1/C=C/O[C@@]2(C)Oc3c(C)c(O)c4c(O)c(c(/C=N/N5CCN(C)CC5)c(O)c4c3C2=O)NC(=O)/C(C)=C\C=C\[C@H](C)[C@H](O)[C@@H](C)[C@@H](O)[C@@H](C)[C@H](OC(C)=O)[C@@H]1C [RIFAMPIN]
Vero [4]
  Selectivity: 400
[6]
  MIC: 0.25 µg/mL (≈ 0.304 µM)
Vero [5]
  IC50: 100 µg/mL (≈ 122 µM)

## CN(C)/C=C/c1c2c(nc3ccccc13)C(=O)c1cccnc1C2=O
Vero [4]
  Selectivity: <0.08
Vero [5]
  IC50: < 0.26 µg/mL
[2]
  MIC: 3.13 µg/mL (≈ 9.5 µM)

## O=C(O)c1cn(C2CC2)c2cc(N3CCNCC3)c(F)cc2c1=O [CIPROFLOXACIN]
[2]
  MIC: < 0.2 µg/mL

## NC[C@H]1O[C@H](O[C@H]2[C@H](O)[C@@H](O[C@H]3O[C@H](CO)[C@@H](O)[C@H](N)[C@H]3O)[C@H](N)C[C@@H]2N)[C@H](O)[C@@H](O)[C@@H]1O [KANAMYCIN]
[2]
  MIC: < 0.2 µg/mL
